Patent US4329352A, “Piperidine derivatives of 3-hydroxy-thiophene-2-carboxylic acid esters and pharmaceutical formulations containing these compounds” (BASF Aktiengesellschaft, priority 1979, dated 1982)
Where two headings read alike, the source gives them in different places.

Legend:
in vivo = format: in vivo, rat (Sprague Dawley); details: rat, in vivo; rats, oral; decimal-geometric dosage progression; read-out: Maximum effect: Dose (maximum tolerated dose)
Description: (§1) To determine the anti-arrhythmic activity, the substance is administered orally to rats (Sprague Dawley, weight 200-250 g) 45 minutes before the start of narcosis. The animals are narcotized with 100 mg/kg of sodium thiobutabarbital administered intraperitone-ally. The arrhythmogenic substance is aconitine which is infused intravenously, at a dosage rate of 0.005 mg/kg×min, 60 minutes after administration of the novel substance. In the case of untreated animals (N=52), arrhythmias are noted in the electrocardiogram after 2.74±0.07 min, and the occurrence of these can be delayed by anti-arrhythmic agents, to an extent which depends on the dose.
(§2) The dose which prolongs the infusion duration by 50%, ie. the ED 50%, is determined from the linear relationship between log dose (mg/kg) of test substance and relative prolongation of aconitine infusion duration (Δ%).
(§3) For further characterization of the substance, the anti-arrhythmic effect of the maximum tolerated dose is determined from the decimal-geometric dosage progression (factor ^3 .cuberoot.10) used in the experiments. In addition, the dose at which toxic symptoms (changes in the initial ECG, cyanosis or cramp) occur is determined. Moreover, the anti-arrhythmic activity of the compounds according to the invention is determined on isolated left atria of male guineapigs (Pirbright white, weight 350-450 g).

[1] = tested on: aconitine-induced arrhythmia; test: in vivo; format: in vivo, rat (Sprague Dawley)
Description: as §1, §2, §3

[2] = Toxicity in rats, oral administration: dose at which toxic symptoms (changes in the initial ECG, cyanosis or cramp) occur; format: in vivo, rat (Sprague Dawley); details: for TD50 / selectivity ratio: rat, in vivo; for selectivity ratio: read-out: Q (therapeutic range): quotient of toxic dose and anti-arrhythmically effective dose (ED 50%)
Description: as §1, §3

[3] = tested on: isolated left atria of male guineapigs; test: Anti-arrhythmic activity on isolated left guineapig atria (maximum driving rate); set-up: species or system guineapig (Pirbright white); details: for R.A. = relative activity (maximum sequence frequency): Procainamide = 1.00; for Maximum sequence frequency EC 50%: concentration which produces a 50% decrease in the maximum sequence frequency: Tyrode's solution pH 7.4, 32° C.
Description: As a criterion of the anti-arrhythmic action, the frequency (in Hz) at which the atria are just still able to follow the sequence of pulses (the maximum driving rate) is determined by automatic continuous increase in frequency. The concentration which produces a 50% decrease in maximum driving rate, ie. the ED 50%, is calculated from the linear relationship between log concentration (mg/l) and relative decrease in maximum driving rate (Δ%).

[4] = tested on: isolated left atria of male guineapigs; test: Negatively inotropic effect on isolated left guineapig atria (decrease in contraction amplitude); set-up: species or system guineapig (Pirbright white); details: for R.A. = relative activity (force of contraction): Procainamide = 1.00; for Force of contraction EC 25%: concentration which produces a 25% decrease in the force of contraction: Tyrode's solution pH 7.4, 32° C.
Description: Atria suspended in an organ bath (volume 125 ml) containing carbogen-saturated Tyrode's solution (pH 7.4, 32° C.) are prestressed with 1.0 g and are driven by square wave pulses of 1 Hz base rhythm and double stimulation threshold values (rheo base: 0.2-1.4 V, chronaxia: 0.3-0.5 msec).
Further, the concentration which produces a 25% decrease in amplitude, ie. the EC 25%, is determined, as a measure of the negatively inotropic effect, from the linear relationship between log concentration (mg/l) and relative change in contraction amplitude (Δ%).

[5] = rats, oral, maximum tolerated dose
[6] = rats, oral, greater than procainamide
[7] = isolated guineapig atria, compared with procainamide

| SMILES | MTD (in vivo) [mg/kg] | R.A. = relative activity (effective dose) ([1]; Procainamide = 1.00, rats, oral) | R.M.E. = relative maximum effect ([1]; Procainamide = 1.00, rats, oral, maximum tolerated dose) | ED50 ([1]; Rattus norvegicus, po, read-out: ED 50%: dose which prolongs the duration of aconitine infusion by 50%) [mg/kg] | Maximum effect: prolongation of duration of aconitine infusion, Δ %, at the maximum tolerated dose [1, 5] [%] | anti-arrhythmic effect on aconitine-induced arrhythmia, relative to procainamide [1, 6] [times] | TD50 ([2]; rats, oral, changes in initial ECG, cyanosis or cramp, read-out: Toxicity: dose whose administration produces the first toxic symptoms) [mg/kg] | selectivity ratio ([2]; rats, oral) | therapeutic range (toxic dose / ED 50%), relative to procainamide [2, 6] [times] | R.A. = relative activity (maximum sequence frequency) ([3]; isolated guineapig atria) | anti-arrhythmic effect on isolated guineapig atria, relative to procainamide ([3]; as great as that of procainamide) [times] | Q: quotient of EC 25% force of contraction decrease : EC 50% maximum driving rate ([3]; isolated guineapig atria) | Maximum sequence frequency EC 50%: concentration which produces a 50% decrease in the maximum sequence frequency ([3]; isolated guineapig atria) [µg/mL] | difference between anti-arrhythmic and negatively inotropic effect (quotient EC 25% : EC 50%), in words [3, 7] | therapeutic range as far as effects on guineapig atria are concerned, in words [3, 7] | R.A. = relative activity (force of contraction) [4] | Force of contraction EC 25%: concentration which produces a 25% decrease in the force of contraction [4] [µg/mL] | TD50 ([2]; po) [mg/kg] |
| --- | --- | --- | --- | --- | --- | --- | --- | --- | --- | --- | --- | --- | --- | --- | --- | --- | --- | --- |
| COC(=O)c1sccc1OCC(O)CN1CCC(O)(c2ccccc2)CC1 (stereo not shown) [Example 1, 3-[2-hydroxy-3-(4-phenyl-4-hydroxy-piperidino)-propoxy]-thiophene-2-carboxylic acid methyl ester] | 215 | 3.36 | 2.19 | 46.8 | 296 | 3 to 4 | 464 | 9.9 | 1.6 | 68.7 | 69 | 2.6 | 1.47 | substantially greater than for procainamide | greater therapeutic range | 14.8 | 3.80 | – |
| CCN(CC)CCNC(=O)c1ccc(N)cc1 [Procainamide, procainamide, reference compound] | – | – | – | – | 135 | – | – | 6.4 | – | 1.00 | – | 0.56 | 101 | – | – | 1.00 | 56.4 | 1000 |
